From US20100278855A1, “NEUROPROTECTIVE GANODERMA COMPOSITIONS AND METHODS OF USE” (priority 2009, published 2010)

What was measured:
MES 23.5 cells = assay: High-affinity [3H] dopamine uptake assay, MES 23.5 neurons alone; format: cell-based, rat/murine; settings: 100 μM MPP+ 24 hr, MES23.5 neurons alone, no Ganoderma
Description: (§1) The dopaminergic cell line MES 23.5 was a gift from professor Wei-dong Le, Department of Neurology, Baylor College of Medicine, Houston. The MES 23.5 cells were derived from somatic cell fusion of rat embryonic mesencephalic cells with murine N18TG2 neuroblastoma cells (Crawford, G. D. et al., 1992, J. Neurosci., 12:3392-3398). MES 23.5 cells display many properties of developing neurons of the SN zona compacta and offer several advantages for such initial studies, including greater homogeneity than primary cultures and susceptibility to both free-radical-mediated cytotoxicity and calcium-dependent cell death. […]
(§2) Cells in each well were washed with 1 ml of Krebs-Ringer buffer (16 mM NaH2PO4, 16 mM Na2HPO4, 119 mM NaCl, 4.7 mM KCl, 1.8 mM CaCl2, 1.2 mM MgSO4, 1.3 mM EDTA, and 5.6 mM glucose; pH 7.4). […] After mixing the lysate with 3 ml of scintillation fluid overnight, radioactivity was determined with Perkin Elmer 1450LSC Luminescence Counter (Waltham, USA.). Specific uptake was determined by subtracting the nonspecific counts for the total activity.
(§3) To assess inflammation mediated neurotoxicy, dopaminergic MES23.5 neurons were exposed to 100 μM MPP^+ or 0.25 μg/ml LPS in the absence or presence of microglia co-culture for 24 hr, and neurotoxicity was assessed using [3H] […]

[1] = tested on: MES 23.5 and microglia co-cultures; assay: High-affinity [3H] dopamine uptake assay, MES 23.5 and microglia co-cultures; format: cell-based, rat; settings: no Ganoderma
Description: as §1, §2, §3

IL-1β mRNA = assay: Real-time PCR of IL-1β mRNA in primary microglial cells; format: cell-based, rat; settings: stimulus alone vs control cells
Description: (§4) Total RNA was extracted from primary microglial cells using RNAprep Kit according to the manufacturer's specifications. RNA was primed with random 9 mers and converted into cDNA by reverse transcription (RT) using AMV reverse transcriptase by following the manufacturer's recommended protocol (Schell, J. B. et al., 2007, J. Neuroimmunol., 189:75-87; Liu, B. et al., 2000, J. Pharmacol. Exp. Ther., 293:607-617). The resulting cDNA was then subjected to real-time PCR with SYBR Premix Ex Taq containing a final concentrations of 1×SYBR Green (Molecular Probes) and 0.2 μM of the primer set of interest in a […] reaction. The PCR mixture was run in the DNA engine Opticon 2 (MJ research; Waltham, Mass.). After an initial 10-second 95° C. denaturation step, the reaction was run through 35 cycles at 95° C. for 5 s, 60° C. for 30 s, and 80° C. for 1 s. Melting curve analysis was executed to ensure the resulting products from the reaction had equivalent and appropriate melting temperatures. The specific primers used are listed in Table 1 (Schell, J. B. et al., 2007, J. Neuroimmunol., 189:75-87). The quantification of target transcripts was based on a calibration curve. The “housekeeping” gene β-actin was targeted for an internal control gene. The test gene data were normalized by corresponding β-actin data.

TNF-α = TNF-α ELISA in microglia culture medium; format: cell-based, rat; settings: stimulus alone: LPS 0.25 μg/ml or MPP+-treated cell membrane fraction 150 μg/ml
Procedure: (§5) Microglia were isolated and purified from brains of 12-24 hours old Wistar rats supplied by Laboratory Animal Center (Le, W. D. et al., 2001, J. Neurosci., 21:8447-8455). Briefly, after brains were dissected and the meninges removed, the tissues were minced and digested with trypsin (0.25% trypsin-EDTA in 0.1M phosphate buffer) for 20 minutes at 37° C., triturated with a fire-polished Pasteur pipette and filtered through a […] nylon cell strainer. After centrifugation for 5 minutes at 800 rpm, the tissues were suspended into DMEM containing 10% fetal bovine serum (FBS), and seeded in 75 cm^2 flasks at a density of 5×10^5/ml cells per flask.
(§6) Two weeks after the seeding, the flasks were shaken at 180 rpm for 4 hours, and the floating cells were collected and centrifuged for 5 minutes at 800 rpm. The cells were resuspended and plated to 96-well plates for further experimental treatment.
(§7) To study the interaction of reactive microglia with MES 23.5 cells, microglia and MES 23.5 cells were co-cultured in 24-well culture plates. Briefly, the purified microglia were plated at a density of 1×10^4/well 1 day before addition of MES 23.5 cells at a ratio of 2:1 (MES 23.5 to microglia). […]
(§8) Samples were prepared similar to NO samples and the production of these factors were determined using rat TNF-α kit, rat IL-1β ELISA kit and superoxide Assay Kit-WST according to the manufacturer's instructions. […]

TNF-α mRNA = assay: Real-time PCR of TNF-α mRNA in primary microglial cells; format: cell-based, rat; settings: stimulus alone vs control cells
Description: as §4

IL-1β = IL-1β ELISA in microglia culture medium; format: cell-based, rat; settings: stimulus alone: LPS 0.25 μg/ml or MPP+-treated cell membrane fraction 150 μg/ml
Procedure: as §5, §6, §7, §8

superoxide = assay: Superoxide assay (Assay Kit-WST) in microglia cultures; format: cell-based, rat; settings: stimulus alone: LPS 0.25 μg/ml or MPP+-treated cell membrane fraction 150 μg/ml
Procedure: as §5, §6, §7, §8

nitric oxide (NO) = assay: NO assay (Griess reagent) in microglia culture medium; format: cell-based, rat; settings: stimulus alone: LPS 0.25 μg/ml or MPP+-treated cell membrane fraction 150 μg/ml
Procedure: as §5
Two weeks after the seeding, the flasks were shaken at 180 rpm for 4 hours, and the floating cells were collected and centrifuged for 5 minutes at 800 rpm. The cells were resuspended and plated to 96-well plates for further experimental treatment. […]
The production of NO was quantified by measuring the released NO metabolites (nitrates and nitrites) with Griess reagent (Mayer, A. M., 1998, Medicina (B Aires), 58:377-385). […] The medium was incubated with the same volume of Griess reagent at room temperature for 10 minutes before measuring absorbance at 540 nm in a LP-400 ELISA reader (Diagnostics Pasteur, Marne-la-Coquette, France) with appropriate standards. […]

`C[n+]1ccc(-c2ccccc2)cc1` [MPP^+] was tested, and the “decrease in [3H] DA uptake” value (MES 23.5 cells) was “about 66%” and the “decrease in [3H] DA uptake” value ([1]; 100 μM MPP+ 24 hr, MES23.5 and microglia co-cultures) was “about 74%”.
In the case of lipopolysaccharide [LPS], the “IL-1β mRNA expression” value (IL-1β mRNA) is reported as “significantly increased”, the “increase of TNF-α level” value (TNF-α) is reported as 6-11 fold and the “TNF-α mRNA expression” value (TNF-α mRNA) is reported as “significantly increased”. For the same molecule, the “increase of IL-1β level” value (IL-1β) was 6-11 fold, the “increase of superoxide level” value (superoxide) was 5-11 fold and the “increase of NO level” value (nitric oxide (NO)) was 5-11 fold. For the same molecule, the “reduction of [3H] DA uptake” value ([1]; 0.25 LPS 24 hr, neuron-microglia co-cultures) was “approximately 50%”.
